Data on 1 compound can be found in ChEMBL document CHEMBL1124487, “Acid-sensitive latent inhibitors for proteolytic enzymes: synthesis and characterization” (J Med Chem, 1989).

The target in test [1] is T1, Papain (Carica papaya, UniProt P00784).
T1 sequence (P00784 whole entry): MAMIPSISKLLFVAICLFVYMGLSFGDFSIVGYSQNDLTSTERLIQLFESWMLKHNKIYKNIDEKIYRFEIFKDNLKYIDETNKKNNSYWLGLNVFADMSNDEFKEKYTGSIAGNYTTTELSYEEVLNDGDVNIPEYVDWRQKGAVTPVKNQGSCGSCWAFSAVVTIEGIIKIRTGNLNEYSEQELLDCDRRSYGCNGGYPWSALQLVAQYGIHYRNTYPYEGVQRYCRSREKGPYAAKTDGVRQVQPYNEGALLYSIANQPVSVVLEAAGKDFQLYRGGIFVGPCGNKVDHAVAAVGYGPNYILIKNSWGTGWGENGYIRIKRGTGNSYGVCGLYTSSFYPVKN
The test is described as follows: Inhibition of papain-catalyzed hydrolysis of BzArg p-nitroanilide by compound at pH 5.

For test [2], the target named is T1, Papain. The test is described as follows: Inhibition of papain-catalyzed hydrolysis of BzArg p-nitroanilide by compound at pH 5.5.
Test [3] has as its target T1, Papain. Nature of the test: Inhibition of papain-catalyzed hydrolysis of BzArg p-nitroanilide by compound at pH 7.
In test [4] the target is T2, Papain (Carica papaya) (UniProt P00784).
T2 sequence (whole entry): T1 sequence (P00784 whole entry)
Description: Initial rate of reaction between papain and BzArg p-nitro-anilide in the presence of 400 uM at pH 7

The term Ki denotes the equilibrium dissociation constant of an inhibitor or competing ligand from its target. With `CC(=O)N[C@@H](C)C(=O)N/N=C/CNC(=O)c1ccccc1`, the Ki stood at 38 µM in test [1], 25 µM in test [2] and 30 µM in test [3]. This compound also displayed a Kix in test [4] of 1 mM.
